PubChem BioAssay (NCI)
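Five compound concentrations were applied to cells in 96-well plates for 48 hours; endpoints were derived by simple linear interpolation of the resulting dose-response curve. TGI marks complete inhibition of growth.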

How the values were obtained:
Experiment in all cases: NCI-60 cell line screen, 48 h
[1] = system: 786-0 renal
[2] = system: A498 renal
[3] = system: A549 NSCLC
[4] = system: ACHN renal
[5] = system: BT-549 breast
[6] = system: CAKI-1 renal
[7] = system: CCRF-CEM leukemia
[8] = system: COLO 205 colon
[9] = system: DU-145 prostate
[10] = system: EKVX NSCLC
[11] = system: HCC-2998 colon
[12] = system: HCT-116 colon
[13] = system: HCT-15 colon
[14] = system: HL-60(TB) leukemia
[15] = system: HOP-62 NSCLC
[16] = system: HOP-92 NSCLC
[17] = system: HS 578T breast
[18] = system: HT29 colon
[19] = system: IGROV1 ovarian
[20] = system: K-562 leukemia
[21] = system: KM12 colon
[22] = system: LOX IMVI melanoma
[23] = system: M14 melanoma
[24] = system: MALME-3M melanoma
[25] = system: MCF7 breast
[26] = system: MDA-MB-231 breast
[27] = system: MDA-MB-435
[28] = system: MDA-N
[29] = system: MOLT-4 leukemia
[30] = system: NCI-H226 lung
[31] = system: NCI-H23 lung
[32] = system: NCI-H460 lung
[33] = system: NCI-H522 lung
[34] = system: NCI/ADR-RES ovarian
[35] = system: OVCAR-3 ovarian
[36] = system: OVCAR-4 ovarian
[37] = system: OVCAR-5 ovarian
[38] = system: OVCAR-8 ovarian
[39] = system: PC-3 prostate
[40] = system: RPMI-8226 leukemia
[41] = system: RXF 393 renal
[42] = system: SF-268 CNS
[43] = system: SF-295 CNS
[44] = system: SF-539 CNS
[45] = system: SK-MEL-2 melanoma
[46] = system: SK-MEL-28 melanoma
[47] = system: SK-MEL-5 melanoma
[48] = system: SK-OV-3 ovarian
[49] = system: SN12C renal
[50] = system: SNB-19 CNS
[51] = system: SNB-75 CNS
[52] = system: SR leukemia
[53] = system: SW-620 colon
[54] = system: T-47D breast
[55] = system: TK-10 renal
[56] = system: U251 CNS
[57] = system: UACC-257 melanoma
[58] = system: UACC-62 melanoma
[59] = system: UO-31 renal

Work on `COc1ccc(N=C/C=C/Nc2ccc(OC)cc2)cc1` yielded a TGI [1] of 15.6 µM, a TGI [2] of 27.2 µM and a TGI [3] of 25.2 µM. It also gave a TGI [4] of 29 µM, a TGI [5] of 9.34 µM and a TGI [6] of 12.5 µM. For the same compound, the TGI [7] was > 37.2 µM, the TGI [8] was 16.3 µM and the TGI [9] was 32.9 µM. It also gave a TGI [10] of 30.6 µM, a TGI [11] of 22.1 µM and a TGI [12] of 11.8 µM. For the same compound, the TGI [13] was 14.9 µM, the TGI [14] was 8.45 µM and the TGI [15] was 12.1 µM. It also gave a TGI [16] of 29.6 µM, a TGI [17] of 38.8 µM and a TGI [18] of 8.31 µM. The TGI [19] was 25.1 µM, the TGI [20] was 31 µM and the TGI [21] was 9.55 µM. The TGI [22] was 5.45 µM, the TGI [23] was 23.2 µM and the TGI [24] was 23.9 µM. The TGI [25] was 16.3 µM, the TGI [26] was 6.02 µM and the TGI [27] was 24 µM. The TGI [28] was 14.4 µM, the TGI [29] was 22.9 µM and the TGI [30] was 32.6 µM. The TGI [31] was 41.2 µM, the TGI [32] was 28.1 µM and the TGI [33] was 23.7 µM. For the same compound, the TGI [34] was 25 µM, the TGI [35] was 3.45 µM and the TGI [36] was 9.99 µM. The TGI [37] was 29.6 µM, the TGI [38] was 9.9 µM and the TGI [39] was 26.1 µM. It also gave a TGI [40] of 30.4 µM, a TGI [41] of 18.5 µM and a TGI [42] of 21.3 µM. For the same compound, the TGI [43] was 21.6 µM, the TGI [44] was 24.1 µM and the TGI [45] was 31 µM. The TGI [46] was 29.1 µM, the TGI [47] was 19.5 µM and the TGI [48] was 34.3 µM. For the same compound, the TGI [49] was 8.86 µM, the TGI [50] was 10.4 µM and the TGI [51] was 33.1 µM. For the same compound, the TGI [52] was 11.2 µM, the TGI [53] was 5.48 µM and the TGI [54] was 35.3 µM. The TGI [55] was 27.4 µM, the TGI [56] was 10.2 µM and the TGI [57] was 18.7 µM. For the same compound, the TGI [58] was 27.5 µM and the TGI [59] was 10.8 µM.

For `CC1(C)C2CCC1C(=O)C(C=O)C2` (stereo not given), the TGI [1] was > 100 µM, the TGI [2] was > 100 µM and the TGI [3] was > 100 µM. The TGI [4] was > 100 µM, the TGI [5] was > 100 µM and the TGI [6] was > 100 µM. The TGI [7] was > 100 µM, the TGI [8] was > 100 µM and the TGI [9] was > 100 µM. For the same compound, the TGI [11] was > 100 µM, the TGI [12] was > 100 µM and the TGI [13] was > 100 µM. For the same compound, the TGI [14] was > 100 µM, the TGI [15] was > 100 µM and the TGI [17] was > 100 µM. The TGI [18] was > 100 µM, the TGI [19] was > 100 µM and the TGI [20] was > 100 µM. The TGI [21] was > 100 µM, the TGI [22] was > 100 µM and the TGI [23] was > 100 µM. For the same compound, the TGI [24] was > 100 µM, the TGI [25] was > 100 µM and the TGI [26] was > 100 µM. For the same compound, the TGI [27] was > 100 µM, the TGI [28] was > 100 µM and the TGI [29] was > 100 µM. For the same compound, the TGI [30] was > 100 µM, the TGI [31] was > 100 µM and the TGI [32] was > 100 µM. The TGI [33] was > 100 µM, the TGI [34] was > 100 µM and the TGI [35] was > 100 µM. For the same compound, the TGI [37] was > 100 µM, the TGI [38] was > 100 µM and the TGI [39] was > 100 µM. The TGI [40] was > 100 µM, the TGI [41] was > 100 µM and the TGI [42] was > 100 µM. The TGI [43] was > 100 µM, the TGI [44] was > 100 µM and the TGI [45] was > 100 µM. The TGI [46] was > 100 µM, the TGI [47] was > 100 µM and the TGI [48] was > 100 µM. For the same compound, the TGI [49] was > 100 µM, the TGI [50] was > 100 µM and the TGI [51] was > 100 µM. For the same compound, the TGI [52] was 79.6 µM, the TGI [53] was > 100 µM and the TGI [54] was > 100 µM. The TGI [55] was > 100 µM, the TGI [56] was > 100 µM and the TGI [57] was > 100 µM. For the same compound, the TGI [58] was > 100 µM and the TGI [59] was > 100 µM.
